Like-named read-outs stand apart in the source and are kept apart here.
System: TA98, TA100, TA102, TA1535, TA1537
Protocol: Safety studies were performed by commercial services using their standard protocols. […] Genotoxicity was investigated using the Ames test (Bacterial Reverse Mutation Assay) (Covance Laboratories Ltd, North Yorkshire, England). In vitro mammalian cell micronucleus screening assay was studied in human peripheral blood lymphocytes (BioReliance Corporation, Rockville, USA). Cardiotoxicity was determined against the hERG channel in an automated patch clamp assay using the Qpatch or against the hNaV 1.5, hKV 1.5 and hCaV 1.2 using a manual patch-clamp technique (Metrion Biosciences, Cambridge, UK). Cytotoxicity in human and rat primary hepatocytes was assessed using the CellTiter-Blue assay performed by commercial services (KaLy-Cell). The viability of HepG2 cells was monitored through the addition of 1 mM resazurin. Following 6 h incubation, the relative amount of reduced resazurin was detected in a fluorimeter and compared to the assay controls (vehicle: 0.1% DMSO and positive control: 10 µM puromycin).

## C[C@@H](CNC(=O)[C@H](O)C(C)(C)CO)NC(=O)c1cc(F)c(F)cc1F [MMV693183]
TA102, +S-9, 5000 ug/plate
  Mean (Revertant Numbers Per Plate): 184.3
TA102, -S-9, 5 ug/plate
  Fold Increase: 1
  Mean (Revertant Numbers Per Plate): 245.7
TA102, -S-9, 16 ug/plate
  Fold Increase: 1.1
  Mean (Revertant Numbers Per Plate): 251.3
TA102, -S-9, 50 ug/plate
  Fold Increase: 1.1
  Mean (Revertant Numbers Per Plate): 256.3
TA102, -S-9, 160 ug/plate
  Fold Increase: 1
  Mean (Revertant Numbers Per Plate): 240
TA102, -S-9, 500 ug/plate
  Fold Increase: 0.9
  Mean (Revertant Numbers Per Plate): 202.7
TA102, -S-9, 1600 ug/plate
  Fold Increase: 0.8
  Mean (Revertant Numbers Per Plate): 181.7
TA102, -S-9, 5000 ug/plate
  Fold Increase: 0.1
  Mean (Revertant Numbers Per Plate): 26.7
TA1535, +S-9, 5 ug/plate
  Fold Increase: 0.9
  Mean (Revertant Numbers Per Plate): 20.7
TA1535, +S-9, 16 ug/plate
  Fold Increase: 0.8
  Mean (Revertant Numbers Per Plate): 19.3
TA1535, +S-9, 50 ug/plate
  Fold Increase: 1
  Mean (Revertant Numbers Per Plate): 23.3
TA1535, +S-9, 160 ug/plate
  Fold Increase: 1.1
  Mean (Revertant Numbers Per Plate): 25
TA1535, +S-9, 500 ug/plate
  Fold Increase: 0.8
  Mean (Revertant Numbers Per Plate): 17.7
TA1535, +S-9, 1600 ug/plate
  Fold Increase: 1
  Mean (Revertant Numbers Per Plate): 24
TA1535, +S-9, 5000 ug/plate
  Fold Increase: 1
  Mean (Revertant Numbers Per Plate): 22.7
TA1535, -S-9, 5 ug/plate
  Fold Increase: 1.4
  Mean (Revertant Numbers Per Plate): 35
TA1535, -S-9, 16 ug/plate
  Fold Increase: 0.8
  Mean (Revertant Numbers Per Plate): 20.7
TA1535, -S-9, 50 ug/plate
  Fold Increase: 0.9
  Mean (Revertant Numbers Per Plate): 22
TA1535, -S-9, 160 ug/plate
  Fold Increase: 0.9
  Mean (Revertant Numbers Per Plate): 24
TA1535, -S-9, 500 ug/plate
  Fold Increase: 1.2
  Mean (Revertant Numbers Per Plate): 29.3
TA1535, -S-9, 1600 ug/plate
  Fold Increase: 1
  Mean (Revertant Numbers Per Plate): 26
TA1535, -S-9, 5000 ug/plate
  Fold Increase: 0.9
  Mean (Revertant Numbers Per Plate): 22
TA1535, TA1537
  difference in revertant numbers vs control: < 3 fold
TA1537, +S-9, 5 ug/plate
  Fold Increase: 1.4
  Mean (Revertant Numbers Per Plate): 10
TA1537, +S-9, 16 ug/plate
  Fold Increase: 1.1
  Mean (Revertant Numbers Per Plate): 7.7
TA1537, +S-9, 50 ug/plate
  Fold Increase: 1.9
  Mean (Revertant Numbers Per Plate): 13.3
TA1537, +S-9, 160 ug/plate
  Fold Increase: 1
  Mean (Revertant Numbers Per Plate): 7.3
TA1537, +S-9, 500 ug/plate
  Fold Increase: 1.6
  Mean (Revertant Numbers Per Plate): 11
TA1537, +S-9, 1600 ug/plate
  Fold Increase: 1.4
  Mean (Revertant Numbers Per Plate): 9.7
TA1537, +S-9, 5000 ug/plate
  Fold Increase: 1
  Mean (Revertant Numbers Per Plate): 7.3
TA1537, -S-9, 5 ug/plate
  Fold Increase: 1.1
  Mean (Revertant Numbers Per Plate): 7.7
TA1537, -S-9, 16 ug/plate
  Fold Increase: 0.9
  Mean (Revertant Numbers Per Plate): 6.3
TA1537, -S-9, 50 ug/plate
  Fold Increase: 1
  Mean (Revertant Numbers Per Plate): 6.7
TA1537, -S-9, 160 ug/plate
  Fold Increase: 0.8
  Mean (Revertant Numbers Per Plate): 5.3
TA1537, -S-9, 500 ug/plate
  Fold Increase: 1
  Mean (Revertant Numbers Per Plate): 7.3
TA1537, -S-9, 1600 ug/plate
  Fold Increase: 0.9
  Mean (Revertant Numbers Per Plate): 6
TA1537, -S-9, 5000 ug/plate
  Fold Increase: 0.6
  Mean (Revertant Numbers Per Plate): 4
